According to patent US20250129096A1, “ANNULATED 2-AMINO-3-CYANO THIOPHENES AND DERIVATIVES FOR THE TREATMENT OF CANCER” (Boehringer Ingelheim Int'l GmbH Corp., priority 2021, published 2025):

What was measured:
KRAS (G13D)::SOS1 = biological target: T1, KRAS (G13D)::SOS1 (Homo sapiens, UniProt P01116, C118S/G13D); assay: KRAS::SOS1 AlphaScreen binding assay, KRAS G13D
T1 construct: KRAS (G13D) 1-169, N-terminal 6His-tag for purification, cleaved off; 6His-tag (N, cleaved yes); TEV cleavage site
T1 sequence (P01116 1-169 isoform P01116-2 G13D/C118S): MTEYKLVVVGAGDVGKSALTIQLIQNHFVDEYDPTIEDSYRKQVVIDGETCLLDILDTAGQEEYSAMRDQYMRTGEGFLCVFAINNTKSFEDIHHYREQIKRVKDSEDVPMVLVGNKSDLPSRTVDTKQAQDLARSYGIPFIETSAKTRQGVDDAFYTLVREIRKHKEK
Protocol: Low IC50 values in this assay setting are indicative of strong inhibition of protein-protein interaction between SOS1 and KRAS:
These assays measure the inhibitory effect of compounds on KRAS mutant protein-protein interactions using the Alpha Screen technology by Perkin Elmer.
For the chosen highest assay concentration of 100 μM, 150 nL of compound solution are transferred from a 10 mM DMSO compound stock solution. A series of eleven fivefold dilutions per compound are transferred to the assay plate, compound dilutions are tested in duplicates. DMSO are added as backfill to a total volume of 150 nL.
The assays run on a fully automated robotic system in a darkened room below 100 Lux. To 150 nl of compound dilution 10 μl of a mix including KRAS mutant protein, SOS1 (final assay concentrations see above) and GDP nucleotide (Sigma G7127; final assay concentration 10 μM) in assay buffer (1×PBS, 0.1% BSA, 0.05% Tween 20) are added into columns 1-24. […]
Plates are kept at room temperature in a darkened incubator. After an additional 60 minutes incubation time the signal is measured in a PerkinElmer Envision HTS Multilabel Reader using the AlphaScreen specs from PerkinElmer.
IC50 values are calculated and analyzed with Boehringer Ingelheim's MEGALAB IC50 application using a 4 parametric logistic model.

[1] = system: NCI-H358 cells (NSCLC, G12C); assay: NCI-H358 CTG proliferation assay (120 h), assay 1; assay type: cell-based; details: Homo sapiens, CellTiter-Glo, 96 well, 2000 cells per well
Protocol: NCI-1H358 cells (ATCC No. CRL-5807) are dispensed into white bottom opaque 96 well plates (Perkin Elmer cat no. 5680) at a density of 2000 cells per well in 100 μL RPM 1-1640 ATCC-Formulation (Gibco #A10491)+10% FCS (fetal calf serum) (assay 1) or into black 384-well plates, flat and clear bottom (Greiner, PNr. 781091) at a density of 200 cells per well in 60 μl RPMI-1640 ATCC-Formulation (Gibco #A10491)+10% FCS (fetal calf serum) (assay 2). […] Compounds (10 mM stock in DMSO) are added at logarithmic dose series using the HP Digital Dispenser D300 (Tecan) (assay 1) or the ECHO acoustic liquid handler system (Beckman Coulter) (assay 2), normalizing for added DMSO and including DMSO controls. For the TO time point measurement, untreated cells are analyzed at the time of compound addition. Plates are incubated for 120 h, and cell viability is measured using CellTiter-Glo luminescent cell viability reagent (Promega product code G7570). Viability (stated as percent of control) is defined as relative luminescence units RLU of each well divided by the RLU of cells in DMSO controls. IC50 values are determined from viability measurements by non-linear regression using a four-parameter model.

[2] = system: MKN1 cells (gastric cancer, wt amplified); assay: MKN1 CTG proliferation assay (120 h), assay 1; assay type: cell-based; details: Homo sapiens, MKN-1, CellTiter-Glo, 400 cells per well
Protocol: (§1) MKN1 cells (JCRB0252) are dispensed into white 384-well plates, flat and white bottom (Corning Costar, PNr.: 3570) at a density of 400 cells per well in 50 μL RPMI 1640 (PAN-Biotech, PNr.: P04-18047)+10% FCS (HyClone, PNr.: SH30084.03) (assay 1) or into black 384-well plates, flat and clear bottom (Greiner, PNr. 781091) at a density of 200 cells per well in 60 μl RPMI-1640 (Gibco #A10491)+10% FCS (HyClone, PNr.: SH30084.03)+ PenStrep (Gibco, PNr. 15140-122) (assay 2). […] Compounds (10 mM stock in DMSO) are added at logarithmic dose series using the HP Digital Dispenser D300 (Tecan) (assay 1+2) or the ECHO acoustic liquid handler system (Beckman Coulter) (assay 3), including DMSO controls and normalizing for added DMSO. Plates are incubated for 120 h, and cell viability is measured using CellTiter-Glo luminescent cell viability reagent (Promega product code G7570). Viability (stated as percent of control) is defined as relative luminescence units RLU of each well divided by the RLU of cells in DMSO controls. IC50 values are determined from viability measurements by non-linear regression using a four-parameter model.

[3] = system: MKN1 cells (gastric cancer, wt amplified); assay: MKN1 CTG proliferation assay (120 h), assay 2; assay type: cell-based; details: Homo sapiens, MKN-1, CellTiter-Glo, 200 cells per well
Protocol: as §1

[4] = system: A375 cells (melanoma, wt, B-Raf mutant); assay: A375 CTG proliferation assay (120 h), negative control; assay type: cell-based; details: Homo sapiens, A-375, CellTiter-Glo, negative control cell line
Protocol: A375 cells (ATCC CRL-1619) are dispensed into 384-well plates, flat and clear bottom (Greiner, PNr. 781091) at a density of 300 cells per well in 60 μL DMEM (Sigma D6429)+10% Fetal Calf Serum (HyClone, PNr.: SH30084.03) and incubated at 37° C. in a CO2 incubator overnight. The next day, compounds (10 mM stock in DMSO) are added at logarithmic dose series using the HP Digital Dispenser D300 (Tecan), including DMSO controls. Plates are incubated for 120 h, and cell viability is measured using CellTiter-Glo luminescent cell viability reagent (Promega product code G7570). Viability (stated as percent of control) is defined as relative luminescence units RLU of each well divided by the RLU of cells in DMSO controls. IC50 values are determined from viability measurements by non-linear regression using a four-parameter model.

| IC50 (KRAS (G13D)::SOS1) [nM] | SMILES | IC50 [1] [nM] | IC50 [2] [nM] | IC50 [3] [nM] | IC50 [4] [nM] |
| --- | --- | --- | --- | --- | --- |
| 89 | C[C@H]1[C@@H]2CCCN2CCCN1c1nccc(-c2onc3c2CCC[C@@]32CCCc3sc(N)c(C#N)c32)n1 [Id-1] |  |  |  |  |
|  | C[C@H]1CNCCN1c1nccc(-c2noc3c2CCC[C@@]32CCCc3sc(N)c(C#N)c32)n1 [IIf-1] | 831 | 290 | 2350 | > 3000 |
| 932 | C[C@H]1CNCCCN1c1nccc(-c2onc3c2CCC[C@@]32CCCc3sc(N)c(C#N)c32)n1 [If-1] |  |  |  |  |
|  | C[C@H](Oc1nccc(-c2onc3c2CCC[C@@]32CCCc3sc(N)c(C#N)c32)n1)[C@@H]1C[C@@H](F)CN1C [Ie-2] |  |  | 3460 |  |
